Experimental data reported in PubChem BioAssay AID248 (DTP/NCI, 2004).
Where “and” joins values, the source holds several entries; their conditions need not be identical. Identical values can stand only once. Inconclusive results and toxic doses are left out.

Tested on: L1210 leukemia ip in BDF1 mice, survival T/C
Assay: NCI In Vivo Anticancer Drug Screen. Data for tumor model L1210 Leukemia (intraperitoneal) in B6D2F1 (BDF1) mice
Details: endpoint: mean survival time, higher = longer survival
Experimental: The antitumor activity of compounds was measured in mice bearing transplantable tumors. Survival or tumor size were measured and the results are expressed as the measurement made in the treated group (T) divided by the measurement made in the vehicle treated control group (C). The tumor model used in this assay is L1210 Leukemia (intraperitoneal) in B6D2F1 (BDF1) mice

[1] = dose: 100.0 mg/kg/injection, schedule: Q04DX003 (ip), vehicle: saline
[2] = dose: 200.0 mg/kg/injection, schedule: Q04DX003 (ip), vehicle: saline
[3] = dose: 400.0 mg/kg/injection, schedule: Q04DX003 (ip), vehicle: saline
[4] = dose: 25.0 mg/kg/injection, schedule: Q01DX009 (ip), vehicle: Klucel (hydroxypropylcellulose) (HPC)
[5] = dose: 50.0 mg/kg/injection, schedule: Q01DX009 (ip), vehicle: Klucel (hydroxypropylcellulose) (HPC)
[6] = dose: 100.0 mg/kg/injection, schedule: Q01DX009 (ip), vehicle: Klucel (hydroxypropylcellulose) (HPC)
[7] = dose: 50.0 mg/kg/injection, schedule: Q01DX001 (ip), vehicle: saline
[8] = dose: 100.0 mg/kg/injection, schedule: Q01DX001 (ip), vehicle: saline
[9] = dose: 100.0 mg/kg/injection, schedule: Q01DX009 (ip), vehicle: saline
[10] = dose: 100.0 mg/kg/injection, schedule: Q04DX003 (ip), vehicle: saline with Tween-80
[11] = dose: 200.0 mg/kg/injection, schedule: Q04DX003 (ip), vehicle: saline with Tween-80
[12] = dose: 400.0 mg/kg/injection, schedule: Q04DX003 (ip), vehicle: saline with Tween-80
[13] = dose: 200.0 mg/kg/injection, schedule: Q01DX009 (ip), vehicle: Klucel (hydroxypropylcellulose) (HPC)

CCCCOc1ccc(/C=N/NC(=O)CNC(=O)Nc2cccc([N+](=O)[O-])c2)cc1
T/C (dose: 50.0 mg/kg/injection, schedule: Q01DX009 (ip), vehicle: saline with Tween-80): 96 % of control
T/C (dose: 100.0 mg/kg/injection, schedule: Q01DX009 (ip), vehicle: saline with Tween-80): 96 % of control
T/C (dose: 200.0 mg/kg/injection, schedule: Q01DX009 (ip), vehicle: saline with Tween-80): 93 % of control

O=C(Nc1ccc(C2=NCCN2)cc1)c1cncc(C(=O)Nc2ccc(C3=NCCN3)cc2)c1
T/C (dose: 1.0 mg/kg/injection, schedule: Q01DX Z (ip), vehicle: saline): 97 % of control
T/C (dose: 2.0 mg/kg/injection, schedule: Q01DX Z (ip), vehicle: saline): 111 % of control
T/C (dose: 15.0 mg/kg/injection, schedule: Q01DX Z (ip), vehicle: carboxymethylcellulose (CMC)): 223 % of control
T/C (dose: 16.0 mg/kg/injection, schedule: Q01DX Z (ip), vehicle: saline): 214 % of control
T/C (dose: 30.0 mg/kg/injection, schedule: Q01DX Z (ip), vehicle: carboxymethylcellulose (CMC)): 158 % of control
T/C (dose: 30.0 mg/kg/injection, schedule: Q01DX Z (oral), vehicle: saline): 101 % of control
T/C (dose: 60.0 mg/kg/injection, schedule: Q01DX Z (ip), vehicle: carboxymethylcellulose (CMC)): 120 % of control
T/C (dose: 60.0 mg/kg/injection, schedule: Q01DX Z (oral), vehicle: saline): 104 % of control
T/C (dose: 120.0 mg/kg/injection, schedule: Q01DX Z (oral), vehicle: saline): 98 % of control
T/C (dose: 240.0 mg/kg/injection, schedule: Q01DX Z (oral), vehicle: saline): 106 % of control
T/C (dose: 480.0 mg/kg/injection, schedule: Q01DX Z (oral), vehicle: saline): 101 % of control
T/C (dose: 960.0 mg/kg/injection, schedule: Q01DX Z (oral), vehicle: saline): 101 % of control

CN(Cc1ccc([N+](=O)[O-])cc1)C(=O)Nc1ccc(S(=O)(=O)F)cc1
T/C [1]: 98 % of control
T/C [2]: 101 % of control
T/C [3]: 104 % of control

NCC(Cc1ccc(O)cc1)P(=O)(O)O (stereo not given)
T/C [1]: 100 % of control
T/C [2]: 95 % of control
T/C [3]: 92 % of control

CC(=O)OC1CCC(NC(=O)NCCF)CC1 (stereo not given)
T/C (dose: 100.0 mg/kg/injection, schedule: Q01DX001 (ip), vehicle: other): 98 % of control
T/C (dose: 200.0 mg/kg/injection, schedule: Q01DX001 (ip), vehicle: other): 104 % of control
T/C (dose: 400.0 mg/kg/injection, schedule: Q01DX001 (ip), vehicle: other): 115 % of control

COC(=O)c1ccc(OC(=O)Nc2ccc([N+](=O)[O-])cc2OC)cc1
T/C [4]: 96 % of control
T/C [5]: 101 % of control
T/C [6]: 93 % of control and 100 % of control

c1ccc2c(c1)Sc1ccccc1N2CCCN1CCCC1
T/C (dose: 6.25 mg/kg/injection, schedule: Q04DX003 (ip), vehicle: saline): 108 % of control
T/C (dose: 12.5 mg/kg/injection, schedule: Q04DX003 (ip), vehicle: saline): 105 % of control
T/C (dose: 25.0 mg/kg/injection, schedule: Q04DX003 (ip), vehicle: saline): 116 % of control
T/C [7]: 108 % of control and 123 % of control
T/C (dose: 50.0 mg/kg/injection, schedule: Q04DX003 (ip), vehicle: saline): 106 % of control
T/C [8]: 97 % of control and 103 % of control

O=C(O)CS(=O)(=O)c1nc2ccccc2[nH]1
T/C (dose: 100.0 mg/kg/injection, schedule: Q01DX009 (ip), vehicle: carboxymethylcellulose (CMC)): 94 % of control
T/C (dose: 200.0 mg/kg/injection, schedule: Q01DX009 (ip), vehicle: carboxymethylcellulose (CMC)): 91 % of control
T/C (dose: 400.0 mg/kg/injection, schedule: Q01DX009 (ip), vehicle: carboxymethylcellulose (CMC)): 91 % of control

O=C(O)c1ccc(N/N=C/C(F)(F)F)cc1
T/C (dose: 25.0 mg/kg/injection, schedule: Q01DX009 (ip), vehicle: saline): 95 % of control and 98 % of control
T/C [7]: 110 % of control
T/C (dose: 50.0 mg/kg/injection, schedule: Q01DX009 (ip), vehicle: saline): 93 % of control and 106 % of control
T/C [8]: 96 % of control
T/C [9]: 95 % of control and 87 % of control
T/C (dose: 100.0 mg/kg/injection, schedule: Q04DX002 (ip), vehicle: saline): 106 % of control and 109 % of control
T/C (dose: 200.0 mg/kg/injection, schedule: Q04DX002 (ip), vehicle: saline): 96 % of control

O=C(O)C1CC2c3ccccc3C1c1ccccc12 (stereo not given)
T/C [4]: 90 % of control
T/C [5]: 97 % of control
T/C [6]: 104 % of control
T/C (dose: 100.0 mg/kg/injection, schedule: Q04DX003 (ip), vehicle: Klucel (hydroxypropylcellulose) (HPC)): 90 % of control

CCCCCCC(=O)/C=C/c1ccc(Cl)cc1
T/C (dose: 100.0 mg/kg/injection, schedule: Q01DX009 (ip), vehicle: acetone): 93 % of control
T/C [10]: 96 % of control
T/C (dose: 200.0 mg/kg/injection, schedule: Q01DX009 (ip), vehicle: acetone): 90 % of control
T/C [11]: 98 % of control
T/C (dose: 400.0 mg/kg/injection, schedule: Q01DX009 (ip), vehicle: acetone): 92 % of control
T/C [12]: 93 % of control

O=C(O)CCCC(=O)CCCC(=O)O
T/C [8]: 98 % of control
T/C (dose: 200.0 mg/kg/injection, schedule: Q01DX001 (ip), vehicle: saline): 93 % of control
T/C (dose: 400.0 mg/kg/injection, schedule: Q01DX001 (ip), vehicle: saline): 104 % of control

O=C1C2CCC(=O)N2c2ccccc2S(=O)(=O)C1c1ccccc1 (stereo not given)
T/C (dose: 12.5 mg/kg/injection, schedule: Q01DX009 (ip), vehicle: Klucel (hydroxypropylcellulose) (HPC)): 95 % of control
T/C [4]: 98 % of control
T/C (dose: 25.0 mg/kg/injection, schedule: Q04DX003 (ip), vehicle: Klucel (hydroxypropylcellulose) (HPC)): 96 % of control
T/C [5]: 91 % of control
T/C (dose: 50.0 mg/kg/injection, schedule: Q04DX003 (ip), vehicle: Klucel (hydroxypropylcellulose) (HPC)): 96 % of control

Nc1ncnc2c(C3OC(CO)C(O)C3O)[nH]nc12 (stereo not given)
T/C (dose: 5.0 mg/kg/injection, schedule: Q01DX015 (ip), vehicle: carboxymethylcellulose (CMC)): 95 % of control
T/C (dose: 10.0 mg/kg/injection, schedule: Q01DX015 (ip), vehicle: carboxymethylcellulose (CMC)): 109 % of control
T/C (dose: 12.5 mg/kg/injection, schedule: Q01DX009 (ip), vehicle: saline with Tween-80): 119 % of control
T/C (dose: 20.0 mg/kg/injection, schedule: Q01DX015 (ip), vehicle: carboxymethylcellulose (CMC)): 111 % of control
T/C (dose: 25.0 mg/kg/injection, schedule: Q01DX009 (ip), vehicle: saline with Tween-80): 98 % of control
T/C (dose: 50.0 mg/kg/injection, schedule: Q01DX001 (ip), vehicle: carboxymethylcellulose (CMC)): 109 % of control
T/C (dose: 100.0 mg/kg/injection, schedule: Q01DX001 (ip), vehicle: carboxymethylcellulose (CMC)): 111 % of control
T/C [8]: 108 % of control
T/C [10]: 114 % of control
T/C (dose: 133.0 mg/kg/injection, schedule: Q04DX003 (ip), vehicle: saline with Tween-80): 100 % of control and 117 % of control
T/C (dose: 200.0 mg/kg/injection, schedule: Q01DX001 (ip), vehicle: carboxymethylcellulose (CMC)): 115 % of control
T/C [11]: 111 % of control
T/C (dose: 300.0 mg/kg/injection, schedule: Q04DX003 (ip), vehicle: saline with Tween-80): 88 % of control

O=C(c1ccccc1)C(O)(c1ccccc1)C1CCCC/C1=N\N(c1ccccc1)c1ccccc1 (stereo not given)
T/C [10]: 92 % of control
T/C [11]: 96 % of control
T/C [12]: 94 % of control

O=C1/C(=C/c2cccnc2)CCc2ccccc21
T/C [4]: 98 % of control
T/C [5]: 106 % of control
T/C [6]: 97 % of control
T/C [10]: 104 % of control
T/C [13]: 112 % of control
T/C [11]: 97 % of control

CCCOC(=O)c1ccc(O)cc1
T/C [6]: 87 % of control
T/C [13]: 94 % of control
T/C (dose: 400.0 mg/kg/injection, schedule: Q01DX009 (ip), vehicle: Klucel (hydroxypropylcellulose) (HPC)): 102 % of control

O=c1c2ccccc2[nH]c(=S)n1CCc1ccccn1
T/C (dose: 100.0 mg/kg/injection, schedule: Q04DX002 (ip), vehicle: Klucel (hydroxypropylcellulose) (HPC)): 100 % of control
T/C (dose: 200.0 mg/kg/injection, schedule: Q04DX002 (ip), vehicle: Klucel (hydroxypropylcellulose) (HPC)): 95 % of control
T/C (dose: 400.0 mg/kg/injection, schedule: Q04DX002 (ip), vehicle: Klucel (hydroxypropylcellulose) (HPC)): 89 % of control

CCS(=O)(=O)CC
T/C [9]: 101 % of control
T/C [1]: 100 % of control
T/C (dose: 200.0 mg/kg/injection, schedule: Q01DX009 (ip), vehicle: saline): 106 % of control
T/C [2]: 107 % of control
T/C (dose: 400.0 mg/kg/injection, schedule: Q01DX009 (ip), vehicle: saline): 97 % of control
T/C [3]: 95 % of control
